From ChEMBL document CHEMBL6103618, “Discovery of Novel Oxazolo[4,3-f]purine Derivatives as Antitumor Agents through PPIA Interaction” (J Med Chem, 2025)
Calls of active or inactive are those of the source. The calls are words filed in the database; no cut-off is given here.

Tests used:
HCT-116 [1] = test: Induction of intracellular ROS generation in human HCT-116 cells harboring siNC at 1.2 uM by flow cytometry (reference value: 8.22 %); type: functional
[2] = Toxicity in BALB/c mouse implanted with mouse CT26 cells assessed as injury in spleen at 15 to 45 mg/kg, ip qd treated for 14 days by H and E staining based analysis; type: organism-based; settings: in vivo, 336 h, dose 15-45 mg/kg, time 14 day
HCT-116 [3] = test: Induction of cell cycle arrest in human HCT-116 cells assessed as accumulation at G1 phase at 0.3 uM incubated for 48 hrs by PI staining based flow cytometry (reference value: 59.37 %); type: functional
HCT-116 [4] = test: Induction of apoptosis in human HCT-116 cells assessed as early apoptotic cells at 1.2 uM incubated for 48 hrs by Annexin V-FITC/PI staining based flow cytometry (reference value: 1.12 %); type: functional
CT26 = test: Antitumor activity against mouse CT26 cells implanted in BALB/c mouse assessed as necrosis in tumor tissue at 15 to 45 mg/kg, ip qd treated for 14 days by H and E staining based analysis; type: functional, organism-based; settings: dose 15-45 mg/kg, time 14.0 day
[5] = Toxicity in BALB/c mouse implanted with mouse CT26 cells assessed as injury in kidney at 15 to 45 mg/kg, ip qd treated for 14 days by H and E staining based analysis; type: organism-based; settings: in vivo, 336 h, dose 15-45 mg/kg, time 14 day
HCT-116 [6] = test: Induction of apoptosis in human HCT-116 cells assessed as decrease in p-p38 level by Western blot analysis; type: functional, cell-based; settings: dose 0.3-1.2 µM
HCT-116 [7] = test: Induction of apoptosis in human HCT-116 cells at 1.2 uM in presence of NAC by Annexin V-FITC/PI staining based flow cytometry; type: functional, cell-based
HCT-116 [8] = test: Anti-migration activity in human HCT-116 cells harboring siNC at 1.2 uM incubated for 24 hrs by wound healing assay; type: functional, cell-based
HCT-116 [9] = test: Induction of apoptosis in human HCT-116 cells assessed as viable cells at 1.2 uM incubated for 48 hrs by Annexin V-FITC/PI staining based flow cytometry (reference value: 96.2 %); type: functional; settings: read-out: Activity
HCT-116 [10] = test: Induction of apoptosis in human HCT-116 cells assessed as necrotic cells at 1.2 uM incubated for 48 hrs by Annexin V-FITC/PI staining based flow cytometry (reference value: 1.15 %); type: functional
HCT-116 [11] = test: Induction of cell cycle arrest in human HCT-116 cells assessed as accumulation at G2 phase at 0.6 uM incubated for 48 hrs by PI staining based flow cytometry (reference value: 6.08 %); type: functional
[12] = Acute toxicity in BALB/c mouse assessed as death rate at 700 mg/kg, ip measured for 14 days; type: organism-based; settings: both, in vivo, time 14 day, read-out: Activity
HCT-116 [13] = test: Anti-invasion activity in human HCT-116 cells incubated for 24 hrs by transwell assay; type: functional, cell-based; settings: dose 0.3-1.2 µM
SW480 = test: Antiproliferative activity against human SW480 cells assessed as inhibition of cell viability incubated for 48 hrs by CCK8 assay; type: functional, cell-based; settings: SW480, 48 h
HCT-116 [14] = test: Induction of DNA damage in human HCT-116 cells assessed as increase in gamma-H2AX level at 0.3 to 1.2 uM incubated for 48 hrs by Western blot analysis; type: functional, cell-based; settings: dose 0.3-1.2 µM
HCT-116 [15] = test: Anti-proliferative activity against human HCT-116 cells harboring siNC assessed as decrease in p-JNK level at 1.2 uM by Western blot analysis; type: functional, cell-based
[16] = Acute toxicity in BALB/c mouse assessed as death rate at 500 mg/kg, ip measured for 14 days; type: organism-based; settings: both, in vivo, time 14 day, read-out: Activity
HCT-116 [17] = test: Induction of cell cycle arrest in human HCT-116 cells assessed as decrease in CDK4 level incubated for 48 hrs by Western blot analysis; type: functional, cell-based; settings: dose 0.3-1.2 µM
HCT-116 [18] = test: Induction of apoptosis in human HCT-116 cells assessed as decrease in Bcl-2 level at 0.3 to 1.2 uM incubated for 48 hrs by Western blot analysis; type: functional, cell-based; settings: dose 0.3-1.2 µM
HCT-116 [19] = test: Anti-proliferative activity against human HCT-116 cells harboring siPPIA-3 assessed as decrease in p-ERK1/2 level at 1.2 uM by Western blot analysis; type: functional, cell-based
HCT-116 [20] = test: Induction of apoptosis in human HCT-116 cells assessed as decrease in p-ERK1/2 level by Western blot analysis; type: functional, cell-based; settings: dose 0.3-1.2 µM
[21] = Acute toxicity in BALB/c mouse assessed as death rate at 180 mg/kg, ip measured for 14 days; type: organism-based; settings: both, in vivo, time 14 day, read-out: Activity
HCT-116 [22] = test: Anti-migration activity in human HCT-116 cells incubated for 24 hrs by wound healing assay; type: functional, cell-based; settings: dose 0.3-1.2 µM
[23] = Stability in mouse plasma assessed as half life measured upto 24 hrs by HPLC analysis; type: ADME, cell-free
HCT-116 [24] = test: Induction of apoptosis in human HCT-116 cells assessed as increase in Bax level at 1.2 uM in presence of NAC by Western blot analysis; type: functional, cell-based
HeLa = test: Antiproliferative activity against human HeLa cells assessed as inhibition of cell viability incubated for 48 hrs by CCK8 assay; type: functional, cell-based
HCT-116 [25] = test: Effect on SET expression in human HCT-116 cells upto 6 uM incubated for 30 mins followed by pronase addition measured after 30 mins by DARTS assay; type: functional, cell-based
HCT-116 [26] = test: Cytotoxicity against human HCT-116 cells harboring siNC assessed as inhibition of cell viability incubated for 48 hrs by CCK8 assay; type: functional, cell-based; settings: HCT-116, 48 h
HCT-116 [27] = test: Cytotoxicity against human HCT-116 cells harboring siPPIA-3 assessed as inhibition of cell viability incubated for 48 hrs by CCK8 assay; type: functional, cell-based; settings: HCT-116, 48 h
HCT-116 [28] = test: Induction of apoptosis in human HCT-116 cells assessed as early apoptotic cells at 0.6 uM incubated for 48 hrs by Annexin V-FITC/PI staining based flow cytometry (reference value: 1.12 %); type: functional
HCT-116 [29] = test: Induction of cell cycle arrest in human HCT-116 cells assessed as accumulation at S phase at 0.3 uM incubated for 48 hrs by PI staining based flow cytometry (reference value: 34.55 %); type: functional
HCT-116 [30] = test: Induction of apoptosis in human HCT-116 cells harboring siNC assessed as late apoptotic cells at 1.2 uM by Annexin V-FITC/PI staining based flow cytometry (reference value: 1.35 %); type: functional
HCT-116 [31] = test: Induction of apoptosis in human HCT-116 cells assessed as late apoptotic cells at 0.3 uM incubated for 48 hrs by Annexin V-FITC/PI staining based flow cytometry (reference value: 1.55 %); type: functional
HCT-116 [32] = test: Induction of cell cycle arrest in human HCT-116 cells assessed as accumulation at G2 phase at 1.2 uM incubated for 48 hrs by PI staining based flow cytometry (reference value: 6.08 %); type: functional
HCT-116 [33] = test: Inhibition of cell viability in human HCT-116 cells at 0.3 to 1.2 uM incubated for 48 hrs; type: functional, cell-based; settings: dose 0.3-1.2 µM
HCT-116 [34] = test: Induction of ER stress in human HCT-116 cells at 0.3 to 1.2 uM incubated for 48 hrs by ER-Tracker Red dye based analysis; type: functional, cell-based; settings: dose 0.3-1.2 µM
HCT-116 [35] = test: Induction of DNA damage in human HCT-116 cells assessed as increase in p53 level at 0.3 to 1.2 uM incubated for 48 hrs by Western blot analysis; type: functional, cell-based; settings: dose 0.3-1.2 µM

Q: What does the source list for `C=C(C(=O)OC)N1c2nc(Cl)nc(Cl)c2N2C(c3ccccc3F)OC(C(=O)OCC)(C(=O)OCC)C12` (racemic)?
A: Activity (HCT-116 [1]): 22.9%; Activity [2]: Non-toxic; Activity (HCT-116 [3]): 65.85%; Activity (HCT-116 [4]): 21.3%; Activity (CT26): Active; Activity [5]: Non-toxic; Activity (HCT-116 [6]): Dose-dependent-effect; Activity (HCT-116 [7]): inactive; Activity (HCT-116 [8]): Active; viability at 1.2 µM (HCT-116 [9]): 68%; Activity (HCT-116 [10]): 2.4%; Activity (HCT-116 [11]): 4.71%; mortality at 336 h [12]: 100%; Activity (HCT-116 [13]): Dose-dependent-effect; IC50 (SW480): 2590 nM; Activity (HCT-116 [14]): Active; Activity (HCT-116 [15]): Active; mortality at 336 h [16]: 60%; Activity (HCT-116 [17]): Dose-dependent-effect; Activity (HCT-116 [18]): Active; Activity (HCT-116 [19]): inactive; Activity (HCT-116 [20]): Dose-dependent-effect; mortality at 336 h [21]: 0%; Activity (HCT-116 [22]): Dose-dependent-effect; half-life [23]: 4.78 h; Activity (HCT-116 [24]): inactive; IC50 (HeLa): 690 nM; Activity (HCT-116 [25]): No effect; IC50 (HCT-116 [26]): 470 nM; IC50 (HCT-116 [27]): 1940 nM; Activity (HCT-116 [28]): 14.8%; Activity (HCT-116 [29]): 27.89%; Activity (HCT-116 [30]): 4.87%; Activity (HCT-116 [31]): 3.56%; Activity (HCT-116 [32]): 2.78%; inhibition (HCT-116 [33]): Active; Activity (HCT-116 [34]): Active; Activity (HCT-116 [35]): Active
